Test results reported in article PMC9456261 (International Journal of Molecular Sciences, 2022).

Assays:
Vero E6 cells = assay: Cytotoxicity, MTT assay
in vitro = conditions: African green monkey
SARS-CoV-2 = assay: Time-of-drug-addition assay (qRT-PCR of viral RNA in supernatant); type: cell-based; conditions: 25 µM, Vero E6, MOI 0.01, qRT-PCR 18 h post-infection
Description: To explore which steps of the SARS-CoV-2 replication cycle were interrupted by the test compounds, we performed a time-of-drug-addition assay for compounds 874 and 876, which were selected as representatives with different substituents at positions N1 and N3. Cells were treated with 25 µm of these compounds at various stages of infection (entry, full time and post-entry) which was followed by qRT-PCR assays.
The assays were performed as described previously. Briefly, Vero E6 cells were seeded into 96-well plates and treated with 874 or 876 (25 µM) at different stages of virus infection (full-time, entry and post-entry). The cells were infected with SARS-CoV-2 (MOI = 0.01) and then incubated for 1 h. The viral inoculum was then removed, and the cells were washed twice with PBS. At 18 h post-infection, the cell culture supernatant of each time point experiment was collected for viral yield measurements using qRT–PCR, as described in [31, 33].
Figure 3 Time-of-drug-addition Assay. Vero E6 cells were treated with the compounds at different time points of the viral replication cycle as described in the Materials and Methods chapter. For all experimental groups, cells were infected with SARS-CoV-2 at an MOI of 0.01. Viral RNA copies in the supernatant were quantified by qRT-PCR at 18 h post-infection. All results are shown as mean ± SEM (n = 3). One-way ANOVA with Tukey’s post hoc test: ** p < 0.01, *** p < 0.001 and **** p < 0.0001.

[1] = target: SARS-CoV-2 RdRp (NSP12, NSP7 and NSP8) (Severe acute respiratory syndrome coronavirus 2, UniProt P0DTD1); assay: Inhibition of SARS-CoV-2 RNA-dependent RNA polymerase activity (Profoldin kit); type: biochemical
Description: SARS-CoV-2 RdRp activity was inhibited by 876 at 100 µM and 50 µM, by 100% and 60%, respectively (Figure 6).
The activity of SARS-CoV-2 RdRp was assessed using the SARS-CoV-2 RNA-dependent RNA polymerase kit plus (Profoldin #S2RPA100KE), according to the manufacture instructions. In brief, reactions were carried out at 35 °C for 2 h in the presence or absence (control) of the test compound. Then, fluorescent dye was added, and fluorescence was determined using a Qubit fluorimeter (Thermo Fisher, MA, USA). The inhibition of RdRp activity was calculated from the values obtained for control samples.
Figure 6 Uracil Derivative 876 Inhibit the Transcriptional Activity of SARS-CoV-2 RNA-dependent RNA polymerase. Transcriptional inhibition plot of the SARS-CoV-2 replication complex treated with 876 or PBS (control) (n = 3). Results are representative mean ± SEM. One-way ANOVA with Tukey’s post hoc test: *** p < 0.001 and **** p < 0.0001.

Compound	melting point [°C]	CC50 (in vitro) [µM]	also measured
4-[5-[3-[5-(2-Bromophenoxy)pentyl]-2,6-dioxo-5-methyl-3,6-dihydropyrimidin-1(^2H)-yl]pentyloxy]benzoic acid [Compound 872]			CC50 (Vero E6 cells; 72 h): > 50 µM
O=C(O)c1ccc(OCCCCn2c(=O)ccn(Cc3cccc4ccccc34)c2=O)cc1 [Compound 601, 4-[4-[2,6-Dioxo-3-(naphthyl-1-methyl)-3,6-dihydropyrimidin-1(^2H)-yl]butoxy]benzoic acid]	183 to 184.5	> 50	
O=c1ccn(Cc2c3ccccc3cc3ccccc23)c(=O)n1CCCCCCOc1ccc(Br)cc1 [Compound 611, 1-(Anthracen-9-ylmethyl)-3-[6-(4-bromophenoxy)hexyl]uracil]		> 50	
O=C(O)c1ccc(OCCCCCn2c(=O)ccn(CCCCCOc3ccc(F)cc3)c2=O)cc1 [Compound 870, 4-[5-[3-[5-(4-Fluorophenoxy)pentyl]-2,6-dioxo-3,6-dihydropyrimidin-1(^2H)-yl]pentyloxy]benzoic acid]	133 to 135	> 50	
O=C(O)c1ccc(OCCCCCn2c(=O)ccn(CCCCCOc3ccccc3Br)c2=O)cc1 [Compound 871, 4-[5-[3-[5-(2-Bromophenoxy)pentyl]-2,6-dioxo-3,6-dihydropyrimidin-1(^2H)-yl]pentyloxy]benzoic acid]		> 25	Effect on cell proliferation / cell death (Vero E6 cells): reduced cell proliferation without significant cell death
O=C(O)c1ccc(OCCCCn2c(=O)ccn(CCCOc3ccc(Br)cc3)c2=O)cc1 [Compound 873, 4-[4-[3-[3-(4-Bromophenoxy)propyl]-2,6-dioxo-3,6-dihydropyrimidin-1(^2H)-yl]butoxy]benzoic acid]	122 to 124	> 50	
Cc1cc(C)cc(OCCCCCn2ccc(=O)n(CCCCCOc3ccc(C(=O)O)cc3)c2=O)c1 [Compound 874, 4-[5-[3-[5-(3,5-Dimethylphenoxy)pentyl]-2,6-dioxo-3,6-dihydropyrimidin-1(^2H)-yl]pentyloxy]benzoic acid]		> 25	Production of viral RNA, compound added at entry step (SARS-CoV-2): did not inhibit the production of viral RNA; Virus replication (viral load in supernatant), compound added full time (SARS-CoV-2): inhibited virus replication; Effect on cell proliferation / cell death (Vero E6 cells): reduced cell proliferation without significant cell death
O=C(O)c1ccc(Cn2c(=O)ccn(CCCCCOc3ccc(Br)cc3)c2=O)cc1 [Compound 875]		> 50	
O=C(O)c1ccc(OCCCCCn2c(=O)ccn(Cc3c4ccccc4cc4ccccc34)c2=O)cc1 [Compound 876]	173 to 176	> 50	Production of viral RNA, compound added at entry step (SARS-CoV-2): did not inhibit the production of viral RNA; Virus replication (viral load in supernatant), compound added full time (SARS-CoV-2): inhibited virus replication; Viral load, compound added post-entry (SARS-CoV-2; post-entry): reduced the viral load; inhibition at 50 µM ([1]; 50 µM): 60%; inhibition at 100 µM ([1]; 100 µM): 100%
O=C(O)c1ccc(OCCCCn2c(=O)ccn(Cc3ccc4ccccc4c3)c2=O)cc1 [Compound 1005, 4-[4-[2,6-Dioxo-3-(naphthyl-2-methyl)-3,6-dihydropyrimidin-1(^2H)-yl]butoxy]benzoic acid]	143.5 to 145	> 50	
O=C(O)c1ccc(OCCCCn2c(=O)ccn(Cc3ccc(Br)c4ccccc34)c2=O)cc1 [Compound 1006, 4-[4-[3-(4-Bromonaphthyl-1-methyl)-2,6-dioxo-3,6-dihydropyrimidin-1(2H)-yl]butoxy]benzoic acid]	195.5 to 197.5	> 50	
O=C(O)c1ccc(OCCCn2c(=O)ccn(CCCCCCCCCCCCOc3ccc(Br)cc3)c2=O)cc1 [Compound 1007, 4-[3-[3-[12-(4-Bromophenoxy)dodecyl]-2,6-dioxo-3,6-dihydropyrimidin-1(^2H)-yl]propoxy]benzoic acid]		> 25	Effect on cell proliferation / cell death (Vero E6 cells): reduced cell proliferation without significant cell death
